Tests used:
[1] = test system: RBL2H3 cells; experiment: Degranulation assay: β-hexosaminidase release during immune complex mediated degranulation; type: cell-based, rat; settings: Rattus norvegicus, RBL-2H3, Assay Protocol B (96 well format); for inhibition at 1 µM: read-out: Degranulation % inhibition at 1 μM; for EC50: read-out: Degranulation EC50
Procedure: The objective of this assay was to examine by Fluorescence method the effect of compounds on β-hexosaminidase release during immune complex mediated degranulation in RBL2H3 cells. Compounds were tested for their ability to inhibit the ability of this immune complex to mediate β-hexosaminidase release, in an enzyme assay with […] as substrate. […] Emission 460 nm). [table] [table] RBL2H3 cells were maintained in MEM complete media containing 10% FBS at 70%-80% confluence in a mammalian cell culture CO2 incubator with 5% CO2 at 37° C. 2×10^5 cells/well were plated in 1 mL of complete media and incubated for 5 hours for cell attachment. Complete media was replaced with 1 mL of serum free MEM media containing 1.2 μg/mL of anti-DNP rat IgE as sensitizing agent and further incubated overnight with 5% CO2 at 37° C. […] Cells were further stimulated with 5 μg/mL of DNP-BSA for 60 minutes. Plates were centrifuged for 5 minutes at 1000 rpm and 25 μL of culture supernatant was transferred from each assay well into a 96 well black coated plate. 25 μL β-NAG substrate was added to this mixture and incubated at room temperature for 30 minutes. The reaction was terminated with 100 μL of stop solution and fluorescence was monitored. (Excitation 355 nm; Emission 460 nm) See, Sanderson, (2010), Cellular Immunology, 262(1): 28-34 and Silverman, (2006) MCB, 26(5):1826-1838, which are incorporated herein by reference. The % release of β-Hexosaminidase for the test compound was calculated using the following formula: RBL2H3 cells were maintained in MEM complete media containing 10% FBS at 70-80% confluence in a mammalian cell culture CO2 incubator with 5% CO2 at 37° C. 5×10^4 cells/well were plated in 200 μL of complete media containing 0.3 μg/mL of anti-DNP rat IgE as sensitizing agent for 24 hours at 37° C. & 5% CO2. The following day, cells were washed twice with PIPES buffer for 10 minutes at 37° C. and replenished with serum free MEM media. Cells were treated with various concentrations of test compounds (in 0.5% DMSO) for 15 minutes at 37° C. and 5% CO2. The cells were further stimulated with 0.1 μg/mL of DNP-BSA for 45 minutes. The plates were spun for 5 minutes at 2000 rpm and 25 μL of culture supernatant was then transferred from each assay well into a 96 well black coated plate. […] β-NAG substrate was added and incubated at RT for 30 minutes. After incubation with substrate, 150 μL of stop solution was added and fluorescence was monitored. (Excitation 355 nm; Emission 460 nm). See, Yamamoto, JPET, 306(3):1174-1181 (2003) and Taylor, MCB, 15(8): 4149-4157 (1995), which are herein incorporated by reference. Release of β-hexosaminidase during the degranulation process by immune complex mediated FcεRI stimulation is through the SYK pathway. The % inhibition of β-hexosaminidase release by Syk inhibitor gives information with regard to its Syk inhibition potency.

[2] = molecular target: Syk (356-635 amino acids) catalytic domain (Homo sapiens (Human), UniProt P43405); experiment: Inhibition of enzymatic Syk kinase activity (radiometric); type: biochemical; settings: read-out: IC50 Syk
Summary of the method: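 Radiometric filter-binding format: 32P transfer from γ-32P-ATP onto pG4T, scintillation-counted after acid washes of P81 paper. Syk kinase domain (356-635), 0.035–7.5 ng per reaction, was exposed to compound for 30 minutes at room temperature before a 10-minute, 30° C. reaction with ATP (100 μM stock). Inhibition derived from counts with versus without compound.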

[3] = molecular target: JAK2 (Homo sapiens (Human), UniProt O60674); experiment: Inhibition of enzymatic JAK2 kinase activity (TR-FRET); type: biochemical; settings: read-out: IC50 JAK
Summary of the method: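 TR-FRET read-out (Eu antibody donor, Ulight poly Glu-Tyr acceptor, 665/615 nm ratio) after a 60 min RT kinase reaction with ATP, begun following 30 min compound–enzyme preincubation. Stopped by EDTA; inhibition expressed as 100 minus % activity of positive control.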

JAK2, sequence (O60674 808-1132): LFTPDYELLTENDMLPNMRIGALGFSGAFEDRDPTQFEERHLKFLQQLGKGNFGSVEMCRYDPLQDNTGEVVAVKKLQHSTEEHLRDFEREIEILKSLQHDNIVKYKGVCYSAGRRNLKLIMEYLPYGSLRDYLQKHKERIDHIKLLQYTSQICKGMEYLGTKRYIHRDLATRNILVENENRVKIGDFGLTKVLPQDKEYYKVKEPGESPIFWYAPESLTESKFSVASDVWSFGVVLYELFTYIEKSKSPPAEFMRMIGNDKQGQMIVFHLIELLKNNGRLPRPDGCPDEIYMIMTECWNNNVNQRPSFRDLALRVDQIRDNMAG

Row | SMILES | inhibition at 1 µM [1] [%] | EC50 [1] [nM] | IC50 [2] [nM] | IC50 [3] [nM]
1 | CC(C)(CO)N1CCN(c2ccc(Nc3nc(N4CCC(CC#N)CC4)nc4cn[nH]c(=O)c34)cc2)CC1 [Example 266, 2-(1-(4-((4-(4-(1-hydroxy-2-methylpropan-2-yl)piperazin-1-yl)phenyl)amino)-5-oxo-5,6-dihydropyrimido[4,5-d]pyridazin-2-yl)piperidin-4-yl) acetonitrile] | 99 | 10 | < 10 | < 50
2 | N#CCC1CCN(c2nc(Nc3ccc(N4CCC(CCC(=O)O)CC4)cc3)c3c(=O)[nH]ncc3n2)CC1 [Example 147, 3-(1-(4-((2-(4-(cyanomethyl)piperidin-1-yl)-5-oxo-5,6-dihydropyrimido[4,5-d]pyridazin-4-yl)amino)phenyl)piperidin-4-yl)propanoic acid] | 49 | 152 | < 10 | < 50
3 | O=C(O)CC1CCN(CCOc2ccc(Nc3nc(N4CCCCCC4)nc4cn[nH]c(=O)c34)cc2)CC1 [Example 96, 2-(1-(2-(4-((2-(azepan-1-yl)-5-oxo-5,6-dihydropyrimido[4,5-d]pyridazin-4-yl)amino)phenoxy)ethyl)piperidin-4-yl) acetic acid] | 85 | 280 | < 10 | < 10
4 | CCN(CC)CCOc1ccc(Nc2nc(N3CCCCCC3)nc3cn[nH]c(=O)c23)cc1 [Example 159, 2-(azepan-1-yl)-4-((4-(2-(diethylamino)ethoxy)phenyl)amino)pyrimido[4,5-d]pyridazin-5(6H)-one] | 68 | 56 | < 50 | < 10
5 | O=C(O)CC1CCN(c2ccc(Nc3nc(-c4ccccc4)nc4cn[nH]c(=O)c34)cc2)CC1 [Example 34, 2-(1-(4-(5-oxo-2-phenyl-5,6-dihydropyrimido[4,5-d]pyridazin-4-ylamino)phenyl)piperidin-4-yl)acetic acid] | 80 | 378 | < 50 | < 50
6 | CC(C)(O)C(=O)N1CCN(c2ccc(Nc3nc(N4CCCCCC4)nc4cn[nH]c(=O)c34)cc2)CC1 [Example 214, 2-(azepan-1-yl)-4-((4-(4-(2-hydroxy-2-methylpropanoyl)piperazin-1-yl)phenyl)amino)pyrimido[4,5-d]pyridazin-5(6H)-one] | 78 | 19 | < 10 | < 10
7 | O=c1[nH]ncc2nc(N3CCCCCC3)nc(Nc3ccc(N4CCC(Cc5nn[nH]n5)CC4)cc3)c12 [Example 244, 4-((4-(4-((2H-tetrazol-5-yl)methyl)piperidin-1-yl)phenyl)amino)-2-(azepan-1-yl)pyrimido[4,5-d]pyridazin-5(6H)-one] | 23 | 306 | < 10 | < 10
8 | CC(C)(CO)N1CCCN(c2ccc(Nc3nc(N4CCC(CC#N)CC4)nc4cn[nH]c(=O)c34)cc2)CC1 [Example 297, 2-(1-(4-((4-(4-(1-hydroxy-2-methylpropan-2-yl)-1,4-diazepan-1-yl)phenyl)amino)-5-oxo-5,6-dihydropyrimido[4,5-d]pyridazin-2-yl)piperidin-4-yl)acetonitrile] | 99 | 18 | < 10 | < 50
9 | CCN1CCN(c2ccc(Nc3nc(N4CCC(CC#N)CC4)nc4cn[nH]c(=O)c34)cc2)CC1 [Example 187, 2-(1-(4-((4-(4-ethylpiperazin-1-yl)phenyl)amino)-5-oxo-5,6-dihydropyrimido[4,5-d]pyridazin-2-yl)piperidin-4-yl)acetonitrile] | 100 | 12 | < 10 | < 50
10 | O=C(O)C1CC1C1CCN(c2ccc(Nc3nc(N4CCCCCC4)nc4cn[nH]c(=O)c34)cc2)CC1 (centres unmarked) [Example 131, 2-(1-(4-((2-(azepan-1-yl)-5-oxo-5,6-dihydropyrimido[4,5-d]pyridazin-4-yl)amino)phenyl)piperidin-4-yl) cyclopropanecarboxylic acid] | 98 | 35 | < 10 | < 10
11 | O=c1[nH]ncc2nc(N3CCCCCC3)nc(Nc3ccc(N4CCOCC4)cc3)c12 [Example 60, 2-(azepan-1-yl)-4-((4-morpholinophenyl)amino)pyrimido[4,5-d]pyridazin-5(6H)-one] | 100 | 18 | < 10 | < 10
12 | O=c1[nH]ncc2nc(N3CCCCCC3)nc(Nc3ccc(OCCN4CCOCC4)cc3)c12 [Example 93, 2-(azepan-1-yl)-4-((4-(2-morpholinoethoxy)phenyl)amino) pyrimido[4,5-d]pyridazin-5(6H)-one] | 49 | – | < 50 | < 50
13 | CC(C)(C(=O)O)N1CCN(c2ccc(Nc3nc(N4CCC(CC#N)CC4)nc4cn[nH]c(=O)c34)cc2)CC1 [Example 213, 2-(4-(4-((2-(4-(cyanomethyl)piperidin-1-yl)-5-oxo-5,6-dihydropyrimido[4,5-d]pyridazin-4-yl)amino)phenyl)piperazin-1-yl)-2-methylpropanoic acid] | 78 | 33 | < 10 | < 50
14 | N#CCC1CCN(c2nc(Nc3ccc(OCCN4CCC(CO)CC4)cc3)c3c(=O)[nH]ncc3n2)CC1 [Example 218, 2-(1-(4-((4-(2-(4-(hydroxymethyl)piperidin-1-yl)ethoxy)phenyl)amino)-5-oxo-5,6-dihydropyrimido[4,5-d]pyridazin-2-yl)piperidin-4-yl) acetonitrile] | 33 | 123 | < 50 | < 50
15 | N#CCC1CCN(c2nc(Nc3ccc(N4CCN(CCCO)CC4)cc3)c3c(=O)[nH]ncc3n2)CC1 [Example 261, 2-(1-(4-((4-(4-(3-hydroxypropyl)piperazin-1-yl)phenyl)amino)-5-oxo-5,6-dihydropyrimido[4,5-d]pyridazin-2-yl)piperidin-4-yl)acetonitrile] | 87 | 39 | < 10 | < 50
16 | O=C(O)CCN1CCN(c2ccc(Nc3nc(N4CCCCCC4)nc4cn[nH]c(=O)c34)cc2)CC1 [Example 208, 3-(4-(4-((2-(azepan-1-yl)-5-oxo-5,6-dihydropyrimido[4,5-d]pyridazin-4-yl)amino)phenyl)piperazin-1-yl) propanoic acid] | 21 | 14 | < 10 | < 10
17 | CCN1CCN(c2ccc(Nc3nc(N4CCCCCC4)nc4cn[nH]c(=O)c34)cc2)CC1=O [Example 175, 2-(azepan-1-yl)-4-((4-(4-ethyl-3-oxopiperazin-1-yl)phenyl)amino) pyrimido[4,5-d]pyridazin-5(6H)-one] | 98 | 6 | < 10 | < 10
18 | CC(C)(CO)N1CCN(c2ccc(Nc3nc(N4CCCCCC4)nc4cn[nH]c(=O)c34)cc2)CC1 [Example 265, 2-(azepan-1-yl)-4-((4-(4-(1-hydroxy-2-methylpropan-2-yl)piperazin-1-yl)phenyl)amino)pyrimido[4,5-d]pyridazin-5(6H)-one] | 79 | 30 | < 10 | < 10

Reference: patent US10183944B2 (Asana Biosciences, LLC, priority 2011, dated 2019)
